Experimental data from patent US20230405118A1, “STAT-ACTIVATED MACROPHAGES, COMPOSITIONS, AND USES THEREOF” (THE GEORGE WASHINGTON UNIVERSITY, A CONGRESSIONALLY …, priority 2020, published 2023).

Assays:
Type in all cases: cell-based, mouse
[1] = system: M2 macrophages (bone marrow derived macrophages polarized with IL4/IL13); assay: M2 polarization of pre-treated BMDMs, CD206 marker by flow cytometry; details: naïve BMDMs pre-treated with compound, then polarized to M2 with IL4/IL13; FIG. 1
Protocol: (§1) Bone marrow derived macrophages (BMDMs): For macrophage isolation, bone marrow from 6-12 weeks old C57BL/6 mouse was used following an IACUC approved protocol. Briefly, femurs and tibia bones were isolated after removing the skeletal muscles. The bone marrow was flushed with RPMI complete medium supplemented with non-essential amino acids. A single-cell suspension of bone marrow was prepared with repeated pipetting and incubated with 20 ng/mL of mouse recombinant M-CSF (Biolegend) at 37° C. for 4 days to differentiate into macrophages.
Flow cytometry: Flow cytometry was performed following the protocol described previously. Knox et al., Sci Rep. 2019 Oct. 10; 9(1):14824. doi: 10.1038/s41598-019-51403-6. Briefly, mice were euthanized following the IACUC protocol, and tumor cells were processed into a single cell suspension for analysis by flow cytometry with tumor digestion buffer. The following antibodies were used to stain cell surface markers expressed by different immune cells. All the antibodies were purchased from Biolegend (San Diego, CA) unless otherwise specified. Myeloid cell surface markers are as follows: APC anti-mouse CD80 (clone 16-10A1), PE/Cy7 anti-mouse CD206 (MMR) (clone C068C2), APC/Fire™ 750 anti-mouse CD45.2 (clone 104), FITC anti-mouse H-2 (clone M1/42), Brilliant Violet 785TM anti-mouse F4/80 (clone BM8), and Alexa Fluor® 700 anti-mouse CD3 (clone 17A2). […]

Arginase I = Arginase I gene expression by quantitative real-time PCR in pre-treated macrophages; details: FIG. 2
Protocol: as §1
(§2) Bone marrow derived macrophages (BMDMs) were differentiated into macrophages with M-CSF. These naïve macrophages were pre-treated with Nexturastat A (NextA) or 6-nitrobenzo[b]thiophene-1,1-dioxide (Stattic) and polarized to M2 macrophages with IL4/IL13. Pre-treatment with NextA and Stattic decreased polarization of M2 macrophages as indicated by flow cytometry.
(§3) Further validation of M2 polarization markers at gene expression levels by quantitative real-time PCR indicate that Arginase I, TGFβ, and FIZZ1, which are tumor-promoting factors, were decreased. FIG. 2, FIG. 3, and FIG. 4.

FIZZ1 = FIZZ1 gene expression by quantitative real-time PCR in pre-treated macrophages; details: FIG. 4
Protocol: as §1, §2, §3

TGFβ = TGFβ gene expression by quantitative real-time PCR in pre-treated macrophages; details: FIG. 3
Protocol: as §1, §2, §3

CCCCN(Cc1ccc(C(=O)NO)cc1)C(=O)Nc1ccccc1 [NextA, Nexturastat A]
decreased: polarization of M2 macrophages (CD206 as marker, flow cytometry) [1] | Arginase I expression level (M2 polarization marker) (Arginase I) | FIZZ1 expression level (M2 polarization marker) (FIZZ1) | TGFβ expression level (M2 polarization marker) (TGFβ)

O=[N+]([O-])c1ccc2c(c1)S(=O)(=O)C=C2 [Stattic, 6-nitrobenzo[b]thiophene-1,1-dioxide]
decreased: polarization of M2 macrophages (CD206 as marker, flow cytometry) [1] | Arginase I expression level (M2 polarization marker) (Arginase I) | FIZZ1 expression level (M2 polarization marker) (FIZZ1) | TGFβ expression level (M2 polarization marker) (TGFβ)
